This note sets out measurements from the supplement of paper PMC11208160.
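Also: IS621 recombinase and bridge RNA in Escherichia coli cells.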

The series in a line: recombinant barcode read abundance after kanamycin selection (control-corrected) (log10(CPM+1)); higher = more efficient recombination; sequences stand for … in AGTGCAGAGAAAATCGGCCAGTTTTCTCTGCCTGCAGTCCGCATGCCGT…AGATTTATGCAGCGGACTGCCTTTCTCCCAAAGTGATAAACCGGACAGTATCATGGACCGGTTTTCCCGGTAATCCGTATTTGCAAGGTTGGTTTCACT; site = the 11-nt target. An outline of the steps: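 Targets were screened in pooled form in E. coli against IS621 bridge RNA target-binding loops. Recombination efficiency is based on barcode counts at recombinant junctions in counts per million, averaged and corrected for the control. Numbers are shown as log10(CPM+1), with duplicate plates on chloramphenicol/ampicillin LB agar (control) or chloramphenicol/ampicillin/kanamycin with 0.1 mM IPTG.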
Turning to “AGCAGAGCTTGGGTTCTAACCTGTTGCTG (site AGCAGAGCTCT)”, the “recombinant barcode read abundance (log10)” value was 0.93.

As for “AGCATCACTTGGGTTCTAACCTGTTGCCT (site AACATCACTCG)”, the “recombinant barcode read abundance (log10)” value worked out at 0.135.

On to “AGCATCACTTGGGTTCTAACCTGTTGCCT (site AGCATCACTAG)”, for which the “recombinant barcode read abundance (log10)” value was 0.499.

With “AGCATTGCTTGGGTTCTAACCTGTTGCCT (site AGCATTGCTAG)”, the “recombinant barcode read abundance (log10)” value turned out to be 0.235.

Consider “AGCATTGCTTGGGTTCTAACCTGTTGCCT (site AGCCTTGCTAG)”, for which the “recombinant barcode read abundance (log10)” value was found to be 0.629.

Take “AGCATTGCTTGGGTTCTAACCTGTTGCCT (site AGCGTTGCTAG)”: the “recombinant barcode read abundance (log10)” value was 0.724.

Consider “AGCATTGCTTGGGTTCTAACCTGTTGCCT (site AGCTTTGCTAG)”, for which the “recombinant barcode read abundance (log10)” value worked out at 0.0996.

Regarding “AGCCACCCTTGGGTTCTAACCTGTTGCCT (site AGCCACACTAG)”, the “recombinant barcode read abundance (log10)” value turned out to be 0.201.

With “AGCCACCCTTGGGTTCTAACCTGTTGCCT (site AGCCACCCTAG)”, the “recombinant barcode read abundance (log10)” value is 0.425.

With “AGCCACCCTTGGGTTCTAACCTGTTGCCT (site AGCCACGCTAG)”, the “recombinant barcode read abundance (log10)” value was found to be 0.265.

Consider “AGCCACCCTTGGGTTCTAACCTGTTGCCT (site AGCCACTCTAG)”, for which the “recombinant barcode read abundance (log10)” value turned out to be 0.522.

Regarding “AGCCGCCCTTGGGTTCTAACCTGTTGCAT (site AGCCGCCCTAT)”, the “recombinant barcode read abundance (log10)” value was determined as 0.172.

With “AGCCGCCCTTGGGTTCTAACCTGTTGCAT (site CGCCGCCCTAG)”, the “recombinant barcode read abundance (log10)” value turned out to be 0.119.

On to “AGCCGTACTTGGGTTCTAACCTGTTGCCT (site AGACGTACTAG)”, for which the “recombinant barcode read abundance (log10)” value was found to be 0.129.

With “AGCCGTACTTGGGTTCTAACCTGTTGCCT (site AGCCGTACTAG)”, the “recombinant barcode read abundance (log10)” value was 0.341.

For “AGCCGTACTTGGGTTCTAACCTGTTGCCT (site AGGCGTACTAG)”, the “recombinant barcode read abundance (log10)” value came to 0.318.

On to “AGCCGTACTTGGGTTCTAACCTGTTGCCT (site AGTCGTACTAG)”, for which the “recombinant barcode read abundance (log10)” value came out at 0.0183.

Turning to “AGCCTGCCTTGGGTTCTAACCTGTTGCCT (site AGCCTGACTAG)”, the “recombinant barcode read abundance (log10)” value was found to be 0.0617.

In the case of “AGCCTGCCTTGGGTTCTAACCTGTTGCCT (site AGCCTGCCTAG)”, the “recombinant barcode read abundance (log10)” value stood at 0.389.

As to “AGCCTGCCTTGGGTTCTAACCTGTTGCCT (site AGCCTGGCTAG)”, the “recombinant barcode read abundance (log10)” value was determined as 0.549.

“AGCCTGCCTTGGGTTCTAACCTGTTGCCT (site AGCCTGTCTAG)”: the “recombinant barcode read abundance (log10)” value came out at 0.0826.

As to “AGCCTGTCTTGGGTTCTAACCTGTTGCCT (site AGCCTGACTAG)”, the “recombinant barcode read abundance (log10)” value came to 0.444.

Turning to “AGCCTGTCTTGGGTTCTAACCTGTTGCCT (site AGCCTGCCTAG)”, the “recombinant barcode read abundance (log10)” value is 0.

With “AGCCTGTCTTGGGTTCTAACCTGTTGCCT (site AGCCTGGCTAG)”, the “recombinant barcode read abundance (log10)” value stood at 0.143.

With “AGCCTGTCTTGGGTTCTAACCTGTTGCCT (site AGCCTGTCTAG)”, the “recombinant barcode read abundance (log10)” value came out at 1.36.

In the case of “AGCGAATCTTGGGTTCTAACCTGTTGCCG (site AGCGAATCTCG)”, the “recombinant barcode read abundance (log10)” value was 0.217.

Take “AGCGAATCTTGGGTTCTAACCTGTTGCCG (site GAGCGTCCTTA)”: the “recombinant barcode read abundance (log10)” value worked out at 0.232.

Regarding “AGCGCGACTTGGGTTCTAACCTGTTGCCT (site AGCGCGACTAG)”, the “recombinant barcode read abundance (log10)” value is 0.381.

Consider “AGCGCGACTTGGGTTCTAACCTGTTGCCT (site AGGACGACTAG)”, for which the “recombinant barcode read abundance (log10)” value turned out to be 0.338.

As for “AGCGCTCCTTGGGTTCTAACCTGTTGCGT (site AGCCCTCCTAT)”, the “recombinant barcode read abundance (log10)” value is 0.532.

In the case of “AGCGCTCCTTGGGTTCTAACCTGTTGCGT (site AGCGCTCCTAC)”, the “recombinant barcode read abundance (log10)” value turned out to be 0.646.

Regarding “AGCGGGCCTTGGGTTCTAACCTGTTGCCT (site AGCGGACCTAG)”, the “recombinant barcode read abundance (log10)” value came out at 0.382.

For the sequence “AGCGGGCCTTGGGTTCTAACCTGTTGCCT (site AGCGGCCCTAG)”, the “recombinant barcode read abundance (log10)” value was 1.08.

With “AGCGGGCCTTGGGTTCTAACCTGTTGCCT (site AGCGGGCCTAG)”, the “recombinant barcode read abundance (log10)” value is 0.313.

For “AGCGGGCCTTGGGTTCTAACCTGTTGCCT (site AGCGGTCCTAG)”, the “recombinant barcode read abundance (log10)” value came to 0.072.

Take “AGCTAAACTTGGGTTCTAACCTGTTGCCT (site AGCTAAACTAG)”: the “recombinant barcode read abundance (log10)” value came out at 0.256.

In the case of “AGCTAAACTTGGGTTCTAACCTGTTGCCT (site AGCTTATCTAG)”, the “recombinant barcode read abundance (log10)” value was found to be 0.141.

For the sequence “AGCTACTCTTGGGTTCTAACCTGTTGCTT (site AGCTACTCTAA)”, the “recombinant barcode read abundance (log10)” value amounted to 0.694.

As to “AGCTACTCTTGGGTTCTAACCTGTTGCTT (site AGTTAATCTAA)”, the “recombinant barcode read abundance (log10)” value worked out at 0.144.

As for “AGCTCATCTTGGGTTCTAACCTGTTGCCT (site AGCTCACCTAG)”, the “recombinant barcode read abundance (log10)” value is 0.0516.

Turning to “AGCTCATCTTGGGTTCTAACCTGTTGCCT (site AGCTCATCTAG)”, the “recombinant barcode read abundance (log10)” value turned out to be 0.0912.

Turning to “AGCTTAGCTTGGGTTCTAACCTGTTGCCG (site AGCTTAGCTAG)”, the “recombinant barcode read abundance (log10)” value was 0.14.

Regarding “AGCTTAGCTTGGGTTCTAACCTGTTGCCG (site AGCTTAGCTCG)”, the “recombinant barcode read abundance (log10)” value amounted to 0.19.

Take “AGCTTAGCTTGGGTTCTAACCTGTTGCCG (site AGCTTAGCTGG)”: the “recombinant barcode read abundance (log10)” value was found to be 0.0372.

With “AGCTTAGCTTGGGTTCTAACCTGTTGCCG (site AGCTTAGCTTG)”, the “recombinant barcode read abundance (log10)” value was determined as 0.188.

As to “AGGAATTCTTGGGTTCTAACCTGTTGCCT (site AGAAATTCTAG)”, the “recombinant barcode read abundance (log10)” value worked out at 0.443.

For “AGGAATTCTTGGGTTCTAACCTGTTGCCT (site AGCAATTCTAG)”, the “recombinant barcode read abundance (log10)” value turned out to be 0.356.

On to “AGGAATTCTTGGGTTCTAACCTGTTGCCT (site AGGAATTCTAG)”, for which the “recombinant barcode read abundance (log10)” value turned out to be 1.59.

Turning to “AGGAATTCTTGGGTTCTAACCTGTTGCCT (site AGTAATTCTAG)”, the “recombinant barcode read abundance (log10)” value stood at 0.

As to “AGGACTTCTTGGGTTCTAACCTGTTGCCT (site AGGACTTCTAG)”, the “recombinant barcode read abundance (log10)” value worked out at 0.618.

On to “AGGACTTCTTGGGTTCTAACCTGTTGCCT (site AGGATTACTAG)”, for which the “recombinant barcode read abundance (log10)” value amounted to 0.704.

On to “AGGAGCCCTTGGGTTCTAACCTGTTGCTG (site AGGAGCCCTAA)”, for which the “recombinant barcode read abundance (log10)” value turned out to be 0.0752.

With “AGGAGCCCTTGGGTTCTAACCTGTTGCTG (site AGGAGCCCTCA)”, the “recombinant barcode read abundance (log10)” value was found to be 1.75.

For “AGGAGCCCTTGGGTTCTAACCTGTTGCTG (site AGGAGCCCTGA)”, the “recombinant barcode read abundance (log10)” value was found to be 0.0914.

For the sequence “AGGAGCCCTTGGGTTCTAACCTGTTGCTG (site AGGAGCCCTTA)”, the “recombinant barcode read abundance (log10)” value was found to be 0.194.

As for “AGGAGCTCTTGGGTTCTAACCTGTTGCTA (site AGGAACTCTAA)”, the “recombinant barcode read abundance (log10)” value is 0.131.

With “AGGAGCTCTTGGGTTCTAACCTGTTGCTA (site AGGAGCTCTTA)”, the “recombinant barcode read abundance (log10)” value worked out at 1.27.

For the sequence “AGGATAACTTGGGTTCTAACCTGTTGCCT (site AGGATAACTAG)”, the “recombinant barcode read abundance (log10)” value worked out at 0.655.

On to “AGGATAACTTGGGTTCTAACCTGTTGCCT (site AGGATACCTAG)”, for which the “recombinant barcode read abundance (log10)” value turned out to be 0.

For “AGGATACCTTGGGTTCTAACCTGTTGCCT (site AGGATAACTAG)”, the “recombinant barcode read abundance (log10)” value came to 0.219.

“AGGATACCTTGGGTTCTAACCTGTTGCCT (site AGGATACCTAG)”: the “recombinant barcode read abundance (log10)” value amounted to 1.56.

Turning to “AGGATATCTTGGGTTCTAACCTGTTGCCT (site AAGATATCTAG)”, the “recombinant barcode read abundance (log10)” value came out at 0.114.

“AGGATATCTTGGGTTCTAACCTGTTGCCT (site ACGATATCTAG)”: the “recombinant barcode read abundance (log10)” value came to 0.14.

Take “AGGATATCTTGGGTTCTAACCTGTTGCCT (site AGGATATCTAG)”: the “recombinant barcode read abundance (log10)” value is 0.559.

Take “AGGATATCTTGGGTTCTAACCTGTTGCCT (site ATGATATCTAG)”: the “recombinant barcode read abundance (log10)” value stood at 0.261.

With “AGGATCCCTTGGGTTCTAACCTGTTGCAT (site AGGATCCCTAT)”, the “recombinant barcode read abundance (log10)” value was determined as 1.99.

Turning to “AGGATCCCTTGGGTTCTAACCTGTTGCAT (site AGGATCCCTCT)”, the “recombinant barcode read abundance (log10)” value came out at 1.07.

As for “AGGATTACTTGGGTTCTAACCTGTTGCCT (site AGGACTTCTAG)”, the “recombinant barcode read abundance (log10)” value is 0.161.

As for “AGGATTACTTGGGTTCTAACCTGTTGCCT (site AGGATTACTAG)”, the “recombinant barcode read abundance (log10)” value is 0.641.

In the case of “AGGCACTCTTGGGTTCTAACCTGTTGCTG (site AGGCACTCTCA)”, the “recombinant barcode read abundance (log10)” value was found to be 2.35.

As to “AGGCACTCTTGGGTTCTAACCTGTTGCTG (site TGGCACTCTAA)”, the “recombinant barcode read abundance (log10)” value was 0.0921.

“AGGCATCCTTGGGTTCTAACCTGTTGCCT (site AAGCATCCTAG)”: the “recombinant barcode read abundance (log10)” value came out at 0.32.

On to “AGGCATCCTTGGGTTCTAACCTGTTGCCT (site ACGCATCCTAG)”, for which the “recombinant barcode read abundance (log10)” value was found to be 0.202.

Take “AGGCATCCTTGGGTTCTAACCTGTTGCCT (site AGGCATCCTAG)”: the “recombinant barcode read abundance (log10)” value came out at 0.147.

With “AGGCATCCTTGGGTTCTAACCTGTTGCCT (site ATGCATCCTAG)”, the “recombinant barcode read abundance (log10)” value turned out to be 0.0852.

Turning to “AGGCCGCCTTGGGTTCTAACCTGTTGCCG (site AGGCCGCCTCG)”, the “recombinant barcode read abundance (log10)” value stood at 1.17.

As to “AGGCCGCCTTGGGTTCTAACCTGTTGCCG (site AGGCCGGCTCG)”, the “recombinant barcode read abundance (log10)” value was 0.178.
